Source: PubChem BioAssay AID1963436 (Molecular Pharmacology Branch, DTP, NCI, 2024)
pIC50: −log10 of the molar value.

Tested on: OVCAR-5 complex spheroid (HUVEC/MSC), viability % T/C
Experiment: Anticancer human tumor OVCAR-5 cell line growth inhibition [Asc];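 further: spheroids exposed to agents for 7 days before readout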;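 on viability, T/C: 100% = DMSO vehicle-treated wells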
Settings: for pIC50: curve of first compound; for viability, T/C: stronger effect = lower value
Procedure, shortened: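 Stromal components (HUVEC and hMSC) are co-assembled with the cancer cells into multicellular spheroids. Drugs are then added singly or paired, at concentrations falling by half-log increments from a clinically achievable maximum, capped at 10 microM without known Cmax.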

[1] = second compound 0.1 µM, first compound 0.00316 µM
[2] = second compound 0.1 µM, first compound 0.01 µM
[3] = second compound 0.1 µM, first compound 0.0316 µM
[4] = second compound 0.1 µM, first compound 0.1 µM
[5] = second compound 0.316 µM, first compound 0.00316 µM
[6] = second compound 0.316 µM, first compound 0.01 µM
[7] = second compound 0.316 µM, first compound 0.0316 µM
[8] = second compound 0.316 µM, first compound 0.1 µM
[9] = second compound 1 µM, first compound 0.00316 µM
[10] = second compound 1 µM, first compound 0.01 µM
[11] = second compound 1 µM, first compound 0.0316 µM
[12] = second compound 1 µM, first compound 0.1 µM
[13] = second compound 3.16 µM, first compound 0.00316 µM
[14] = second compound 3.16 µM, first compound 0.01 µM
[15] = second compound 3.16 µM, first compound 0.0316 µM
[16] = second compound 3.16 µM, first compound 0.1 µM
[17] = second compound 10 µM, first compound 0.00316 µM
[18] = second compound 10 µM, first compound 0.01 µM
[19] = second compound 10 µM, first compound 0.0316 µM
[20] = second compound 10 µM, first compound 0.1 µM

Compound | pIC50 (second compound 0.1 µM) | pIC50 (second compound 0.316 µM) | pIC50 (second compound 1 µM) | pIC50 (second compound 3.16 µM) | pIC50 (second compound 10 µM) | viability, T/C [1] [%] | viability, T/C [2] [%] | viability, T/C [3] [%] | viability, T/C [4] [%] | viability, T/C [5] [%] | viability, T/C [6] [%] | viability, T/C [7] [%] | viability, T/C [8] [%] | viability, T/C [9] [%] | viability, T/C [10] [%] | viability, T/C [11] [%] | viability, T/C [12] [%] | viability, T/C [13] [%] | viability, T/C [14] [%] | viability, T/C [15] [%] | other results
CCN1CCN(Cc2ccc(Nc3ncc(F)c(-c4cc(F)c5nc(C)n(C(C)C)c5c4)n3)nc2)CC1 + Cc1c(S(C)(=O)=O)c(-c2cc(F)cc(N3CCN(c4ccc(NS(=O)(=O)c5ccc(NC(CCN6CCC(C(=O)OCCCP(=O)(O)O)CC6)CSc6ccccc6)c(S(=O)(=O)C(F)(F)F)c5)cc4)CC3)c2)c(-c2ccc(Cl)cc2)n1C(C)C | < 6.00 | < 6.00 | < 6.00 | < 6.00 | < 6.00 | 94.7 | 83.5 | 66 | 61.5 | 79.4 | 74.1 | 68.6 | 56.1 | 80.1 | 80.4 | 63.5 | 55 | 77 | 72.9 | 63.9 | viability, T/C (second compound 0.1 µM, first compound 0.316 µM): 69.6%; viability, T/C (second compound 0.1 µM, first compound 1 µM): 56.1%; viability, T/C (second compound 0.316 µM, first compound 0.316 µM): 61.8%; viability, T/C (second compound 0.316 µM, first compound 1 µM): 57%; viability, T/C (second compound 1 µM, first compound 0.316 µM): 58.3%; viability, T/C (second compound 1 µM, first compound 1 µM): 50.8%; viability, T/C [16]: 48.6%; viability, T/C (second compound 3.16 µM, first compound 0.316 µM): 58.4%; viability, T/C (second compound 3.16 µM, first compound 1 µM): 47.9%; viability, T/C [17]: 107%; viability, T/C [18]: 97.7%; viability, T/C [19]: 81.5%; viability, T/C [20]: 47%; viability, T/C (second compound 10 µM, first compound 0.316 µM): 54.3%; viability, T/C (second compound 10 µM, first compound 1 µM): 49.1%
Cn1ncnc1[C@H]1c2n[nH]c(=O)c3cc(F)cc(c23)N[C@@H]1c1ccc(F)cc1 + Cc1c(S(C)(=O)=O)c(-c2cc(F)cc(N3CCN(c4ccc(NS(=O)(=O)c5ccc(NC(CCN6CCC(C(=O)OCCCP(=O)(O)O)CC6)CSc6ccccc6)c(S(=O)(=O)C(F)(F)F)c5)cc4)CC3)c2)c(-c2ccc(Cl)cc2)n1C(C)C | < 7.00 | < 7.00 | < 7.00 | < 7.00 | < 7.00 | 100 | 82.9 | 86 | 91.1 | 97 | 89.7 | 89.1 | 74.2 | 100 | 91.7 | 76.5 | 89.2 | 91.2 | 70.1 | 87.9 | viability, T/C (second compound 0.1 µM, first compound 0.000316 µM): 99%; viability, T/C (second compound 0.1 µM, first compound 0.001 µM): 101%; viability, T/C (second compound 0.316 µM, first compound 0.000316 µM): 96.3%; viability, T/C (second compound 0.316 µM, first compound 0.001 µM): 95%; viability, T/C (second compound 1 µM, first compound 0.000316 µM): 96.7%; viability, T/C (second compound 1 µM, first compound 0.001 µM): 110%; viability, T/C (second compound 3.16 µM, first compound 0.000316 µM): 88.1%; viability, T/C (second compound 3.16 µM, first compound 0.001 µM): 90.9%; viability, T/C [16]: 76.9%; viability, T/C (second compound 10 µM, first compound 0.000316 µM): 117%; viability, T/C (second compound 10 µM, first compound 0.001 µM): 138%; viability, T/C [17]: 133%; viability, T/C [18]: 110%; viability, T/C [19]: 97.9%; viability, T/C [20]: 102%
